From patent US9487559B2, “Compositions comprising multivalent synthetic ligands of surface nucleolin and glycosaminoglycans” (ELRO PHARMA SARL, priority 2010, dated 2016)
“Also recorded” adds a separate entry of the source.

Legend:
PANC1 cells = assay: PANC1 proliferation, gemcitabine alone or combined with N6L, Cs-C or nanoparticles, MTT assay; assay type: cell-based, human; details: gemcitabine 1 nM to 50 nM, every day for 4 days, 5% FBS
Method: FIG. 22. Nanoparticles, but not N6L, induce the activity of gemcitabine. Similar number of PANC1 cells was treated with increasing concentrations of gemcitabine alone or in combination with N6L, Cs-C, or nanoparticles composed by Cs-C.

[1] = system: PANC-1 (Human pancreatic carcinoma) cells; assay: Anchorage-dependent proliferation of PANC-1 cells, MTT assay; assay type: cell-based; details: whatever the concentration used (0.1-1000 μg/ml)
[2] = system: U87-MG (Human glioblastoma-astrocytoma) cells; assay: Anchorage-dependent proliferation of U87-MG cells, MTT assay; assay type: cell-based; details: whatever the concentration used (0.1-1000 μg/ml)
[3] = system: chicken embryo chorioallantoic membrane; assay: In vivo angiogenesis, chicken embryo chorioallantoic membrane (CAM) assay; details: heparin or CS-C applied alone on the CAM, 48 h
Method: FIG. 21. […] An 1 cm2 area of chicken embryo CAM, restricted by a silicon ring, was incubated with 20 μM N6L or nanoparticles composed by 20 μM N6L and […] heparin or Cs-C. 48 h later, total vessels length was quantified. We observed that N6L had no effect on the in vivo angiogenesis, in contrast to the heparin or Cs-C composed nanoparticles that inhibited the development of new blood vessels (50% and 70%, respectively). Results are mean values±SD from at least 3 independent experiments.
To analyse the effects of N6L pre-incubated with sulfated glycoaminoglycans on in vivo angiogenesis using chicken embryo chorioallantoic membrane assay.
Leghorn fertilized eggs were incubated for 4 days at 37° C. A window was then opened on the eggshell, exposing the CAM. The window was covered with sterile tape, and the eggs were returned to the incubator. On day 9 of embryo development, […] of distilled water as a control or containing either 20 μM N6L, […] or 10 μg/ml CS-C alone or 20 μM N6L pre-incubated with either 10 μg/ml heparin or 10 μg/ml CS-C inside a silicone ring to restricted the area which is 1 cm^2. […] Photographs were taken and the total length of the vessels was quantified using PC image-analysis software (Scion Corporation, USA). […]

| Molecule | inhibition of PANC1 proliferation by gemcitabine alone (PANC1 cells) | effect of GAG alone on PANC-1 proliferation [1] | effect of GAG alone on U87-MG proliferation [2] | effect of GAG alone on in vivo angiogenesis [3] |
| --- | --- | --- | --- | --- |
| Nc1ccn([C@@H]2O[C@H](CO)[C@@H](O)C2(F)F)c(=O)n1 [gemcitabine] | slight inhibition; also recorded: slightly inhibited | – | – | – |
| chondroitin-6-sulfate [Cs-C] | – | no effect | no effect | no effect |
| heparin | – | no effect | no effect | no effect |
